Assay results published in patent publication US5922731A, “5-[(heteroaryl)alkyl]-3-oxo-pyrido[1,2-a]benzimidazole-4-carboxamide derivatives useful in treating central nervous system disorders” (Ortho Pharmaceutical Corporation, priority 1997, dated 1999).

Legend:
[1] = molecular target: benzodiazepine site of the GABA-A receptor; test: Benzodiazepine Receptor Binding Assay (inhibition of 3H-flunitrazepam binding); settings: 3H-flunitrazepam ca. 3 nM; 10-20 min at 25° C.
Procedure: Selected compounds, which were prepared according to the experimental details given in the following examples, were tested for binding to the benzodiazepine site of the GABA-A receptor (Williams, M. et al., J. Pharm. Exper. Therap. 1988, 248, 89). The ability of the compounds of the invention to inhibit the binding of flunitrazepam to prepared receptors was assessed. For each sample, membranes from ca. 10 mg of tissue were incubated in a K2 HPO4 -buffered incubation medium (final concentration=2.0 mL). The concentration of ligand (^3 H-flunitrazepam) was ca. 3 nM. Samples were incubated 10-20 min at 25° C., after which the membrane material and bound ligand was collected on glass fiber filter sheets using vacuum filtration. The collected material was washed with 10 mM HEPES buffered solution, and the radioactivity associated with each sample was measured by liquid scintillation spectrometry. The binding of the test drug to the receptor was determined by comparing the amount of radiolabeled ligand bound in control samples to the amount of ligand bound in the presence of the drug. Concentration-response data were analyzed in a variety of ways. The IC50 was usually calculated by transforming the data to a log-logit format, then performing a linear regression analysis. This procedure provides a Hill coefficient as well as the IC50 value. An IC50 value of over 10,000 for a particular compound would indicate that the compound was not active in this screen. This is a general screen and compounds active here are have potential utility for the treatment of one or more disorders of the central nervous system.

[2] = system: metrazol-induced convulsions; test: Suppression of Metrazol-Induced Convulsions in Adult Male Mice; assay type: in vivo, mouse (male CD1); settings: 0.5 h; mouse, ip; block of clonic convulsions, CD90 dose of metrazol sc, 30 min observation
Procedure: Compounds of the invention were tested for their ability to reduce metrazol-induced convulsions in mice (Swinyard, E. A. J. Am. Pharm Assoc. 1949, 38, 201). Male CD1 mice, were fasted at least 16 hours, were divided into equal groups and test compounds or vehicle were administered parenterally. Water was not withheld except during the period of observations. At the time of suspected peak activity, anti-pentylenetetrazol (anti-metrazol) activity was evaluated by the subcutaneous administration of the CD90 dose of metrazol (the dose of metrazol was determined from the dose-response curve producing clonic convulsions in 90% of animals that received the corresponding vehicle for this experiment). Metrazol was dissolved in 0.9% sodium chloride solution, and its dose volume was 10 mL/kg. Animals were housed individually for observation of clonic convulsions, tonic convulsions and death for a period of 30 min. Test compounds that blocked the clonic seizure component of the convulsion in at least 50% of the animals were considered active. The biological assay was considered to be valid if the effects of a known anticonvulsant (positive control) were detected, within the same experiment. Activity was reported as percent reduction of clonic convulsions from the vehicle group. The ED50 values of active compounds were calculated by the method of probits (Finney, D. J. 1971. Probit Analysis. London: Cambridge University Press) and are listed in Table 1. […] Compounds active in this screen are considered active anticonvulsion/antiepileptic agents.

[3] = system: behavior suppressed by punishment (Rat Conflict); test: Suppression of Anxiety in the Adult Male Rat (conflict test); assay type: in vivo; settings: ip, minimum effective dose, p<0.05 1-tailed vs vehicle, 3-min test session, read-out: Rat Conflict MED
Procedure: The anxiolytic activity of selected compounds of the invention was assessed by determining their ability to release (disinhibit) behavior that had been suppressed by punishment (Vogel, J. R. et al. Psychopharmacology 1971, 21, 1). Male rats were deprived of water for 48 hrs and were deprived of food for 24 hrs prior to testing. After the first 24 hours of water deprivation, they were placed in the conflict chamber for a training period; wherein, they were allowed 200 unpunished licks from a bottle containing tap water. The experiment was run the next day. At the expected time of peak activity, the animals were placed in the chamber and allowed access to tap water. […] Their first lick initiates a 3-min test session. Subsequently,every 20th lick was punished by a 0.2-s shock delivered via the stainless-steel drinking-tube. Vehicle-treated control animals generally were willing to accept a median number of 3 to 8 shocks per test session. […] The Wilcoxon rank-sum test (Mann-WhitneyU-test) was used to test for an increase (p<0.05, 1-tailed) in the median number of shocks in drug-treated groups, compared to a concurrently run vehicle-treated group. The biological assay is considered to be valid if the effects of a known anxiolytic (positive control) are detected, within the same experiment. A compound was considered active if there is a significant difference in the median number of shocks tolerated between the drug-treated group and the control group. The MED was defined as the minimum dose of the drug-treatment as analyzed using the Wilcoxon rank-sum test (SAS; Statistical Analysis System, version 5.16). If the MED value is greater than 10, an active dose of the compound being tested had not been determined.

| SMILES | IC50 [1] | ED50 [2] | minimal effective dose [3] |
| --- | --- | --- | --- |
| O=C1CCN2C(=C1C(=O)Nc1ccccc1F)N(Cc1ccco1)c1cc(F)ccc12 [CP# 11] | 0.59 nM | < 10 mg/kg | > 10 mg/kg |
| O=C1CCN2C(=C1C(=O)Nc1ccccc1F)N(Cc1c[nH]cn1)c1cc(F)ccc12 [CP# 12, 7-Fluoro-1,2-dihydro-5-[(4-imidazo)methyl]-3-oxo-N-(2-fluorophenyl)pyrido-[1,2-a]benzimidazole-4-carboxamide] | 0.29 nM | 30 mg/kg | > 10 mg/kg |
| O=C1CCN2C(=C1C(=O)Nc1ccccc1F)N(Cc1ccc[n+]([O-])c1)c1cc(F)ccc12 [CP# 13] | 5.19 nM | 3 mg/kg | > 10 mg/kg |
| O=C1CCN2C(=C1C(=O)Nc1ccccc1F)N(Cc1cc[n+]([O-])cc1)c1cc(F)ccc12 [CP# 14] | 13.4 nM | 10 mg/kg | > 10 mg/kg |
| O=C1CCN2C(=C1C(=O)Nc1ccccc1F)N(CCc1ccccn1)c1cc(F)ccc12 [CP# 15] | 0.89 nM | 0.3 mg/kg | 10 mg/kg |
| O=C1CCN2C(=C1C(=O)Nc1ccccc1F)N(Cc1ccncc1)c1cc(F)ccc12 [CP# 16] | 3.01 nM | 3 mg/kg | > 10 mg/kg |
| O=C1CCN2C(=C1C(=O)Nc1ccccc1F)N(Cc1cccnc1)c1cc(F)ccc12 [CP# 17, 7-Fluoro-1,2-dihydro-5-(3-pyridylmethyl)-3-oxo-N-(2-fluorophenyl)pyrido[1,2-a]benzimidazole-4-carboxamide] | 1.27 nM | 1 mg/kg | > 10 mg/kg |
| O=C1CCN2C(=C1C(=O)Nc1c(F)cccc1F)N(CCc1cccs1)c1cc(F)ccc12 [CP# 18] | 0.61 nM | 10 mg/kg | > 10 mg/kg |
| O=C1CCN2C(=C1C(=O)Nc1ccccc1F)N(Cc1ccsc1)c1cc(F)ccc12 [CP# 19, 7-Fluoro-1,2-dihydro-5-[(3-thienyl)methyl]-3-oxo-N-(2-fluorophenyl)pyrido-[1,2-a]benzimidazole-4-carboxamide] | 0.71 nM | 0.7 mg/kg | < 10 mg/kg |
| O=C1CCN2C(=C1C(=O)Nc1ccccc1F)N(CCc1ccsc1)c1cc(F)ccc12 [CP# 20, 7-Fluoro-1,2-dihydro-5-[2-(3-thienyl)ethyl]3-oxo-N-(2-fluorophenyl)pyrido[1,2-a]benzimidazole-4-carboxamide] | 0.096 nM | 0.1 mg/kg | < 10 mg/kg |
| O=C1CCN2C(=C1C(=O)Nc1ccccc1F)N(Cc1cccs1)c1cc(F)ccc12 [CP# 21, 7-Fluoro-1,2-dihydro-5-[(2-thienyl)methyl]-3-oxo-N-(2-fluorophenyl)pyrido-[1,2-a]benzimidazole-4-carboxamide] | 0.3 nM | < 1 mg/kg | < 10 mg/kg |
| O=C1CCN2C(=C1C(=O)Nc1ccccc1F)N(Cc1ccccn1)c1cc(F)ccc12 [CP# 22] | 2.79 nM | < 1 mg/kg | < 10 mg/kg |
| O=C1CCN2C(=C1C(=O)Nc1c(F)cccc1F)N(Cc1ccsc1)c1cc(F)ccc12 [CP# 23] | 4.24 nM | > 10 mg/kg | > 10 mg/kg |
| O=C1CCN2C(=C1C(=O)Nc1c(F)cccc1F)N(Cc1ccccn1)c1cc(F)ccc12 [CP# 24] | 24.4 nM | 3 mg/kg | 10 mg/kg |
| O=C1CCN2C(=C1C(=O)Nc1c(F)cccc1F)N(CCc1ccsc1)c1cc(F)ccc12 [CP# 25] | 0.22 nM | 3 mg/kg | < 10 mg/kg |
| O=C1CCN2C(=C1C(=O)Nc1c(F)cccc1F)N(Cc1cccs1)c1cc(F)ccc12 [CP# 26] | 2.98 nM | < 10 mg/kg | > 10 mg/kg |
| O=C1CCN2C(=C1C(=O)Nc1c(F)cccc1F)N(Cc1ccco1)c1cc(F)ccc12 [CP# 27] | 1.26 nM | 1 mg/kg | > 10 mg/kg |
| O=C1CCN2C(=C1C(=O)Nc1ccccc1F)N(Cc1ccccn1)c1ccccc12 [CP# 28, 1,2-Dihydro-5-(2-pyridylmethyl)-3-oxo-N-(2-fluorophenyl)pyrido[1,2-a]-benzimidazole-4-carboxamide] | 3.77 nM | 0.5 mg/kg | < 10 mg/kg |
| O=C1CCN2C(=C1C(=O)Nc1c(F)cccc1F)N(Cc1ccccn1)c1ccccc12 [CP# 29] | 23.9 nM | 3 mg/kg | > 10 mg/kg |
| O=C1CCN2C(=C1C(=O)Nc1ccccc1F)N(Cc1cccnc1)c1ccccc12 [CP# 30] | 4.54 nM | 10 mg/kg | 10 mg/kg |
